Among the data in patent US20050101595A1, “N-containing cycloalkyl-substituted amino-thiazole derivatives and pharmaceutical compositions for inhibiting cell proliferation and methods for their use” (PFIZER INC., priority 2003, published 2005) are Ki and IC50 values, retold here.

For orientation: IC50 means the concentration that inhibits the measured activity by half.

Where a name gives a salt, the structure may show the parent alone. Read-outs that look alike come from different tables or passages of the source. Where only a bound is given, the exact number is not on record here.

The target in experiment [1] is human CDK4 and genetically truncated (1-264) cyclin D3 (Homo sapiens, UniProt P11802). The experiment can be described thus: Inhibition of CDK4/Cyclin D Retinoblastoma Kinase Activity. Type of experiment: biochemical. The following applies: apparent Ki, CDK4/truncated cyclin D3, Rb fragment substrate, 25 μM ATP. Put shortly: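 The enzyme complex (5 nM), expressed in co-infected insect cells, was incubated with recombinant Rb fragment, 25 μM radiolabelled ATP and 2% DMSO at 30 °C. Reactions were stopped with EDTA after 20 minutes, or 60 minutes for tight-binding inhibitors. Apparent Ki values came from competitive inhibition fits.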

For the next experiment, the target named is CDK2/Cyclin A (Homo sapiens, UniProt P24941). The experiment can be described thus: Inhibition of CDK2/Cyclin A Retinoblastoma Kinase Activity. Type of experiment: biochemical. The following applies: apparent Ki, CDK2/proteolyzed cyclin A, Rb fragment substrate, 25 μM ATP. Put shortly: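 CDK2 (10 or 19 nM), insect-cell expressed, gel-filtration purified with truncated cyclin A; Rb fragment substrate; 25 μM ATP; 10 mM HEPES pH 7.4, 10 mM MgCl2; 30° C, 60 or 75 min; EDTA stop; phosphocellulose/nitrocellulose capture, phosphorimager. % inhibition vs DMSO control, no-enzyme background subtracted.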

Another experiment deals with HCT-116 cell line. Description: Inhibition of cell growth, tetrazolium salt (MTT) assay. The following applies: Homo sapiens, HCT-116, 120 h, MTT, three to five days, read-out: HCT-116 IC50. The class given is cell-based. A digest of the protocol:
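Growth inhibition is scored relative to cells receiving only 0.5% (v/v) DMSO. Plated cells rest 4 h, then take compound for three to five days at 37° C; MTT reduction to formazan is read at 540 nm.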

Sequence of human CDK4 and genetically truncated (1-264) cyclin D3 (P11802 whole entry, the tested form may be a part): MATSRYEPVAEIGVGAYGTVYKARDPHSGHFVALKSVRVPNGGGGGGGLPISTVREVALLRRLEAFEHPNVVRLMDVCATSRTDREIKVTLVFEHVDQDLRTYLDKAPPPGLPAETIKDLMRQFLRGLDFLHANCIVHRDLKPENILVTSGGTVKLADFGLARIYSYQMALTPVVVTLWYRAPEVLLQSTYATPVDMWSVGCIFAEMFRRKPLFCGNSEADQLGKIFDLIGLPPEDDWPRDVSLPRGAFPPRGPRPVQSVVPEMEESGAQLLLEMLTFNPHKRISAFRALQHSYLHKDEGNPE
Sequence of human CDK4 and genetically truncated (1-264) cyclin D3 (P30281 1-264 partner): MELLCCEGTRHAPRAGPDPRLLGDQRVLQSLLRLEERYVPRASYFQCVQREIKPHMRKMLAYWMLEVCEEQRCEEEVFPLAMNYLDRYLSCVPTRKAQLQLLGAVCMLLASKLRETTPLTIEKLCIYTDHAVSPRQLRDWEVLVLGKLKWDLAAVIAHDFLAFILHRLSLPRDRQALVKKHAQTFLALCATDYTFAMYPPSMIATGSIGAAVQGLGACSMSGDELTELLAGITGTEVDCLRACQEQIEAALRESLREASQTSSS

With `Nc1nc(NC2CCN(S(=O)(=O)CCCN3CCCCC3)CC2)sc1C(=O)c1c(F)cccc1F` [Example K7, 1-(4-Amino-2-{1-[3-(piperidin-1-yl)propane-1-sulfonyl]-piperidin-4-ylamino}-thiazol-5-yl)-1-(2,6-difluoro-phenyl)-methanone.], the Ki in experiment [1] amounted to 2.9 nM; on CDK2/Cyclin A, 2 nM. Besides, the IC50 in the experiment with HCT-116 cell line (first HCT-116 column (c4)) was found to be 210 nM; in the experiment on HCT-116 cell line (second HCT-116 column (c5)), 1700 nM.
On the same counts, the results for `Nc1nc(NC2CCN(S(=O)(=O)CCCN3CCCC3)CC2)sc1C(=O)c1c(F)cccc1F` [Example K8, 1-(4-Amino-2-{1-[3-(pyrrolidin-1-yl)propane-1 sulfonyl]-piperidin-4-ylamino}-thiazol-5-yl)-1-(2,6-difluoro-phenyl)-methanone.] are 2.7 nM, 1.8 nM, 310 nM and 2900 nM.
On the same counts, the results for `Nc1nc(NC2CCN(S(=O)(=O)CCCN3CC=CC3)CC2)sc1C(=O)c1c(F)cccc1F` [Example K9, 1-(4-Amino-2-{1-[3-(2,5-dihydropyrrol-1-yl)propane-1-sulfonyl]-piperidin-4-ylamino}-thiazol-5-yl)-1-(2,6-difluoro-phenyl)-methanone.] are 1.6 nM, less than 1.3 nM, 90 nM and 930 nM.
On the same counts, the results for `Nc1nc(NC2CCN(S(=O)(=O)CCCN3CC=CCC3)CC2)sc1C(=O)c1c(F)cccc1F` [Example K11, 1-(4-Amino-2-{1-[3-(3,6-dihydro-2H-pyridin-1-yl)propane-1-sulfonyl]-piperidin-4-ylamino}-thiazol-5-yl)-1-(2,6-difluoro-phenyl)-methanone.] are 1.8 nM, 2.9 nM, 130 nM and 1300 nM.
As for `Nc1nc(NC2CCN(S(=O)(=O)CCCN3CCOCC3)CC2)sc1C(=O)c1c(F)cccc1F` [Example K12, 1-(4-Amino-2-{1-[3-(morpholin-4-yl)propane-1-sulfonyl]-piperidin-4-ylamino}-thiazol-5-yl)-1-(2,6-difluoro-phenyl)-methanone.], the Ki stood at 4.7 nM in experiment [1] and 6.7 nM at CDK2/Cyclin A. Besides, the IC50 with HCT-116 cell line (first HCT-116 column (c4)) was determined as 600 nM; in the experiment on HCT-116 cell line (second HCT-116 column (c5)), 5000 nM.
On the same counts, the results for `Nc1nc(NC2CCN(S(=O)(=O)CCCN3CCSCC3)CC2)sc1C(=O)c1c(F)cccc1F` [Example K13, 1-(4-Amino-2-{1-[3-(thiomorpholin-4-yl)propane-1-sulfonyl]-piperidin-4-ylamino}-thiazol-5-yl)-1-(2,6-difluoro-phenyl)-methanone.] are 2.5 nM, 3.9 nM, 390 nM and 1300 nM.
On the same counts, the results for `CC1(C)CN(CCCS(=O)(=O)N2CCC(Nc3nc(N)c(C(=O)c4c(F)cccc4F)s3)CC2)CCN1` [Example K14, 1-(4-Amino-2-{1-[3-(3,3-dimethylpiperazin-1-yl)propane-1-sulfonyl]-piperidin-4-ylamino}-thiazol-5-yl)-1-(2,6-difluoro-phenyl)-methanone.] are 2.9 nM, 7.9 nM, 3300 nM and more than 5000 nM.
With `CCN1CCN(CCCS(=O)(=O)N2CCC(Nc3nc(N)c(C(=O)c4c(F)cccc4F)s3)CC2)CC1` [Example K15, 1-(4-Amino-2-{1-[3-(4-ethylpiperazin-1-yl)propane-1-sulfonyl]-piperidin-4-ylamino}-thiazol-5-yl)-1-(2,6-difluoro-phenyl)-methanone.], the Ki in experiment [1] stood at 2.5 nM; on CDK2/Cyclin A it was 8.7 nM. Besides, the IC50 turned out to be 1300 nM in the experiment on HCT-116 cell line (first HCT-116 column (c4)) and 5000 nM in the experiment on HCT-116 cell line (second HCT-116 column (c5)).
Take `CN1CCN(CCCS(=O)(=O)N2CCC(Nc3nc(N)c(C(=O)c4c(F)cccc4F)s3)CC2)CC1` [Example K16, 1-(4-Amino-2-{1-[3-(4-methylpiperazin-1-yl)propane-1-sulfonyl]-piperidin-4-ylamino}-thiazol-5-yl)-1-(2,6-difluoro-phenyl)-methanone.]: the Ki in experiment [1] is 2.8 nM; on CDK2/Cyclin A, 7.8 nM. The IC50 in the experiment on HCT-116 cell line (first HCT-116 column (c4)) worked out at 1800 nM; in the experiment on HCT-116 cell line (second HCT-116 column (c5)), 5000 nM.
Regarding `N#CCCCS(=O)(=O)N1CCC(Nc2nc(N)c(C(=O)c3c(F)cccc3F)s2)CC1` [Example K17, 1-(4-{4-Amino-5-[1-(2,6-difluorophenyl)methanoyl]-thiazol-2-ylamino}-piperidine-1-sulfonyl)butyronitrile.], the figures for the Ki (in experiment [1]; at CDK2/Cyclin A) were 3.4 nM and 2.5 nM, respectively. Also, the IC50 in the experiment with HCT-116 cell line (first HCT-116 column (c4)) was 890 nM; in the experiment with HCT-116 cell line (second HCT-116 column (c5)), 2200 nM.
On the same counts, the results for `Nc1nc(NC2CCN(S(=O)(=O)CCCc3nnn[nH]3)CC2)sc1C(=O)c1c(F)cccc1F` [Example K18, 1-(4-Amino-2-{1-[3-(1H-tetrazol-5-yl)-propane-1-sulfonyl]-piperidin-4-ylamino}-thiazol-5-yl)-1-(2,6-difluoro-phenyl)-methanone.] are 18 nM, 3.1 nM, more than 5000 nM and more than 5000 nM.
For `Nc1nc(NC2CCN(S(=O)(=O)CCCN3CCC3)CC2)sc1C(=O)c1c(F)cccc1F` [Example K19, 1-{4-Amino-2-[1-(3-azetidin-1-yl-propane-1-sulfonyl)-piperidin-4-ylamino]-thiazol-5-yl}-1-(2,6-difluoro-phenyl)-methanone.], the Ki in experiment [1] amounted to 2 nM; at CDK2/Cyclin A it was 1.3 nM. For the same compound, the IC50 with HCT-116 cell line (first HCT-116 column (c4)) is 810 nM; in the experiment on HCT-116 cell line (second HCT-116 column (c5)), more than 5000 nM.
On the same counts, the results for `CC(=O)N(C)C1CCN(CCCS(=O)(=O)N2CCC(Nc3nc(N)c(C(=O)c4c(F)cccc4F)s3)CC2)C1` (stereo not shown) [Example K20, N-{1-[3-(4-{4-Amino-5-[1-(2,6-difluoro-phenyl)-methanoyl]-thiazol-2-ylamino}-piperidine-1-sulfonyl)-propyl]-pyrrolidin-3-yl}-N-methyl-acetamide] are 1.5 nM, 4.8 nM, 2000 nM and 5000 nM.
As for `Nc1nc(NC2CCN(S(=O)(=O)CCCSc3ccccn3)CC2)sc1C(=O)c1c(F)cccc1F` [Example K21, 1-(4-Amino-2-{1-[3-(pyridin-2-ylsulfanyl)-propane-1-sulfonyl]-piperidin-4-ylamino}-thiazol-5-yl)-1-(2,6-difluoro-phenyl)-methanone], the Ki worked out at 4.4 nM in experiment [1] and 2.7 nM on CDK2/Cyclin A. The IC50 in the experiment with HCT-116 cell line (first HCT-116 column (c4)) and in the experiment on HCT-116 cell line (second HCT-116 column (c5)) was more than 500 nM each time.
With `Cn1ccnc1SCCCS(=O)(=O)N1CCC(Nc2nc(N)c(C(=O)c3c(F)cccc3F)s2)CC1` [Example K22, 1-(4-Amino-2-{1-[3-(1-methyl-1H-imidazol-2-ylsulfanyl)-propane-1-sulfonyl]-piperidin-4-ylamino}-thiazol-5-yl)-1-(2,6-difluoro-phenyl)-methanone.], the Ki in experiment [1] was 7.3 nM; at CDK2/Cyclin A it was 4.8 nM. The IC50 in the experiment with HCT-116 cell line (first HCT-116 column (c4)) and in the experiment on HCT-116 cell line (second HCT-116 column (c5)) was more than 500 nM throughout.
As to `Nc1nc(NC2CCN(S(=O)(=O)CCCSc3ccncc3)CC2)sc1C(=O)c1c(F)cccc1F` [Example K23, 1-(4-Amino-2-{1-[3-(pyridin-4-ylsulfanyl)-propane-1-sulfonyl]-piperidin-4-ylamino}-thiazol-5-yl)-1-(2,6-difluoro-phenyl)-methanone.], the Ki in experiment [1] is 3 nM; at CDK2/Cyclin A it was 2.8 nM. Further, the IC50 in the experiment with HCT-116 cell line (first HCT-116 column (c4)) was 460 nM; in the experiment on HCT-116 cell line (second HCT-116 column (c5)), more than 500 nM.
`CN(C)CCSCCCS(=O)(=O)N1CCC(Nc2nc(N)c(C(=O)c3c(F)cccc3F)s2)CC1` [Example K24, 1-(4-Amino-2-{1-[3-(2-dimethylamino-ethylsulfanyl)-propane-1-sulfonyl]-piperidin-4-ylamino}-thiazol-5-yl)-1-(2,6-difluoro-phenyl)-methanone.]: the values for the Ki (in experiment [1]; on CDK2/Cyclin A) were 2 nM and 5.9 nM, respectively. Further, the IC50 in the experiment on HCT-116 cell line (first HCT-116 column (c4)) and in the experiment with HCT-116 cell line (second HCT-116 column (c5)) was more than 50 nM throughout.
Consider `COCCNCCS(=O)(=O)N1CCC(Nc2nc(N)c(C(=O)c3c(F)cccc3F)s2)CC1` [Example K25, (4-Amino-2-{1-[2-(2-methoxy-ethylamino}-ethanesulfonyl]-piperidin-4-ylamino}-thiazol-5-yl)-(2,6-difluoro-phenyl)-methanone Trifluoroacetic Acid Salt.], for which the Ki came out at 1.4 nM in experiment [1] and 4.4 nM at CDK2/Cyclin A. Also, the results for the IC50 in the experiment on HCT-116 cell line (first HCT-116 column (c4)) and in the experiment with HCT-116 cell line (second HCT-116 column (c5)) were 880 nM and 2600 nM, respectively.
Regarding `Nc1nc(NC2CCN(S(=O)(=O)CCNCCN3CCCC3)CC2)sc1C(=O)c1c(F)cccc1F` [Example K28, (4-Amino-2-{1-[2-(2-pyrrolidin-1-yl-ethylamino)-ethanesulfonyl]-piperidin-4-ylamino}-thiazol-5-yl)-(2,6-difluoro-phenyl)-methanone Trifluoroacetic Acid Salt.], the Ki in experiment [1] was 2.8 nM; on CDK2/Cyclin A, 10 nM. Moreover, the IC50 in the experiment on HCT-116 cell line (first HCT-116 column (c4)) and with HCT-116 cell line (second HCT-116 column (c5)) was more than 5000 nM in each case.
